Results as given in PMC5291402 (The Plant Pathology Journal, 2017).
In brackets after ≈: the same amount, converted by molar mass.

Assays:
[1] = test system: Xanthomonas citri subsp. citri 19-18 (XscW1), WT; assay: Streptomycin MIC/MBC of the strains used; format: cell-based
[2] = test system: Xanthomonas citri subsp. citri 10-5 (XscW2), WT; assay: Streptomycin MIC/MBC of the strains used; format: cell-based
[3] = test system: Xanthomonas citri subsp. citri 8-4 (XcsM5), rpsL41 (K42R in S12); format: cell-based
[4] = test system: Xanthomonas citri subsp. citri 57-2 (XcsM6), strB located in Tn5393; assay: Streptomycin MIC/MBC of the strains used; format: cell-based
[5] = test system: Xanthomonas citri subsp. citri 27-13 (XcsM8), rpsL41 & strB double mutant; format: cell-based
wild type strains of Xcc = assay: Streptomycin MIC, wild type strains; format: cell-based, Xanthomonas citri subsp. citri; details: Xanthomonas citri, read-out: MICs of wild type strains of Xcc
wild type strain XccW2 = format: in vivo, Xanthomonas citri subsp. citri
SR strain XccM8 = format: in vivo, Xanthomonas citri subsp. citri; details: 50 μg/ml or 100 μg/ml, SR mutant XccM8, citrus leaves

With [H]/N=C(/N)N[C@H]1[C@H](O)[C@@H](O)[C@H](O[C@@H]2O[C@@H](C)[C@](O)(C=O)[C@H]2O[C@@H]2O[C@@H](CO)[C@H](O)[C@@H](O)[C@@H]2NC)[C@@H](N/C(N)=N\[H])[C@@H]1O [Streptomycin] the MIC [1] was 1 µg/mL, the MIC [2] was 2 µg/mL and the MIC [3] was 6,000 μg/ml. The MBC [4] was 3670 µg/mL, the MIC [4] was 3330 µg/mL and the MIC [5] was 3,000 μg/ml. The MIC (wild type strains of Xcc) was 1 to 2 µg/mL (≈ 1.72 to 3.44 µM), the “delay of the first pustule formation” value (wild type strain XccW2; 50 μg/ml, wild type Xcc, citrus leaves (data not shown)) was “about 1 day” and the “days to form the first yellowish halo around the pustule (index 2)” value (wild type strain XccW2; 100 μg/ml, co-infiltrated with wild type Xcc into citrus leaves) was 10 days. The “suppression of symptom development” value (wild type strain XccW2; wild type Xcc, citrus leaves, monitored 17 days after inoculation) was “suppressed up to 17 days” and the “suppression of disease progress” value (SR strain XccM8) was “did not suppress the disease progress”.
